This note sets out measurements from patent US20090062294A1, “HETEROARYL-SUBSTITUTED UREA MODULATORS OF FATTY ACID AMIDE HYDROLASE” (priority 2007, published 2009).

One test concerns the target T1, FAAH (Homo sapiens, UniProt O00519).
T1 sequence (O00519 1-579): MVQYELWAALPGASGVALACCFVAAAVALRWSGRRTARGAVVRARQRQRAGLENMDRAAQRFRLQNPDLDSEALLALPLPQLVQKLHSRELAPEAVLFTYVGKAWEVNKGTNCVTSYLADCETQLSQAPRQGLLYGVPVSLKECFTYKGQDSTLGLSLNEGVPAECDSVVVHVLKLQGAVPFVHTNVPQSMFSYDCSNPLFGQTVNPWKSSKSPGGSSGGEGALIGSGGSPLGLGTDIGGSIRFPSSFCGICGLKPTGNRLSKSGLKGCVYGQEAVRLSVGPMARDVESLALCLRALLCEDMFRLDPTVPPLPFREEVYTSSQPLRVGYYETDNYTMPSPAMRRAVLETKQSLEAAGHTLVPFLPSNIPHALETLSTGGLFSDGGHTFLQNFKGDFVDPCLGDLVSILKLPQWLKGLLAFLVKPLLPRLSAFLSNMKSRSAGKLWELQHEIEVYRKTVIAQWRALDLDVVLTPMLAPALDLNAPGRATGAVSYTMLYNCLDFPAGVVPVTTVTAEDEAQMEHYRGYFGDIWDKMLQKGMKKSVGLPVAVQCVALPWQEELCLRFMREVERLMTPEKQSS
The test is described as follows: Assay Method 1: FAAH assay, 3H-anandamide hydrolysis in homogenate of T84 cells or SK-N-MC cells transfected with human FAAH. The class given is biochemical. As to conditions: average of results, > = solubility limit or highest concentration tested. Put shortly:
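Hydrolysis of ^3H-anandamide (80 nM final, added last) was measured over 1 h at rt, using test compound with homogenate of T84 cells or human FAAH-transfected SK-N-MC cells. The homogenization buffer was 125 mM Tris, 1 mM EDTA, 0.02% Triton X-100, pH 9. Unbound labelled ethanolamine was passed through charcoal filters and scintillation-counted.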

A further test has as its target T2, rat FAAH (Rattus norvegicus, UniProt P97612).
T2 sequence (P97612 1-579): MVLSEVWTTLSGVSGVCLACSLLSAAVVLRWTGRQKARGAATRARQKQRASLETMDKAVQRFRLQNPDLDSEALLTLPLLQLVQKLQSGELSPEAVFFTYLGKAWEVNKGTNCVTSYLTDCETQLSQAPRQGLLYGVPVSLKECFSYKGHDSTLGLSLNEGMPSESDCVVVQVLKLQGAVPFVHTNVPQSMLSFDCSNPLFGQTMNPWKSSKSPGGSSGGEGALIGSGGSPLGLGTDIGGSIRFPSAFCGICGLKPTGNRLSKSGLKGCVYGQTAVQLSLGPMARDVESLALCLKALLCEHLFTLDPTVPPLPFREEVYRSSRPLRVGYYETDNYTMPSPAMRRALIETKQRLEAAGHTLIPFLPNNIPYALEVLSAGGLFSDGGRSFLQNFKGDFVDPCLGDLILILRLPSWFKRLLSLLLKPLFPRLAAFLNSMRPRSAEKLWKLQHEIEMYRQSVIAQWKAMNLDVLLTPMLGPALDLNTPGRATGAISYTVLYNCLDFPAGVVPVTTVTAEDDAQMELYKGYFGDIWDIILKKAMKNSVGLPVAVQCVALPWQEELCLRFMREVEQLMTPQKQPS
The test is described as follows: Assay Method 2: FAAH assay, 3H-anandamide hydrolysis in homogenate of SK-N-MC cells transfected with rat FAAH. In kind it is biochemical. The following applies: average of results, > = solubility limit or highest concentration tested. In a few lines:
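Read-out is scintillation counting of [3H]-ethanolamine passing through activated charcoal, after 1 h at rt with 80 nM final [3H]-AEA. Enzyme source: lysate of G418-selected SK-N-MC clones expressing rat FAAH, homogenized in Tris/EDTA/glycerol/0.02% Triton buffer, pH 9.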

For `O=C(Nc1noc2cc(F)ccc12)N1CCN(Cc2cccc(Oc3ccc(Cl)cc3)c2)CC1` [Example 245, 4-[3-(4-Chloro-phenoxy)-benzyl]-piperazine-1-carboxylic acid (6-fluoro-benzo[d]isoxazol-3-yl)-amide], the IC50 against FAAH worked out at 19 nM; at rat FAAH it was 15 nM.

Consider `O=C(Nc1noc2ccccc12)N1CCN(Cc2cccc(Oc3ccc(C(F)(F)F)cc3)c2)CC1` [Example 109, N-1,2-Benzisoxazol-3-yl-4-{3-[4-(trifluoromethyl)phenoxy]benzyl}-piperazine-1-carboxamide], for which the IC50 is 6 nM on FAAH and 4 nM against rat FAAH.

Broadly, the IC50 is the concentration at which inhibition is half-maximal. High values mean lower potency, low ones higher potency.
